Experimental findings from patent publication US20250154180A1, “CRK-LIKE (CRKL) ADAPTOR PROTEIN INHIBITORS AND METHODS OF MAKING AND USING THE SAME” (Rutgers, The State University of New Jersey, priority 2022, published 2025) are described below.

Like-named read-outs stand apart in the source and are kept apart here.

Series [1] concerns PBNK cells killing activity towards SK-Hep1. Description: Cr51 release assay, PBNK killing of SK-Hep1. It counts as cell-based. The conditions noted are these: 1 uM overnight. On the procedure:
(§1) PBNK cells were incubated with 1 uM NC5 or Compound III overnight, then cells were harvested for Cr51 release assay to check cell cytotoxicity. […] The star symbol indicates the significance of vehicle control vs. NC5 of the indicated E:T ratios. *p<0.05, **p<0.01, n=3.

Series [2] relates to Huh7 cell line. The series is described as follows: CCK-8 cell viability, Huh7. It counts as cell-based. The conditions noted are these: 1 uM, 5 uM, 10 uM; 48 hours. On the procedure:
(§2) In this example, activities of NC5, Compound III, and the known chemotherapeutic, Sorafenib, were evaluated in HepG2, SKHep1, Huh7, and MDA468 cell lines. Cells from each cell line were collected and seeded at 5,000 cells/well in 96-well plates. The cells were incubated for 24 hours before the addition of either DMSO control or drug at various concentrations. After an additional 48 hours of incubation, 3 μL of CCK-8 was added to every well and incubated at 37° C. for 3 hours. Absorbance was measured at 460 nm in a plate reader. Cells from each cell line were treated with NC5 and Compound III at various concentrations (1 uM, 5 uM, 10 uM). The related absorbance was normalized and plotted as line graphs. p-values were determined through two tails student t-tests (*=p<0.5, **=p<0.01, ***=p<0.001).

The test system of series [3] is Sk-Hep1 tumor. The series is described as follows: HCC Sk-Hep1 xenograft model. It counts as in vivo, NSG mice. To be noted: four-group study, 5.0 μg/g oral gavage. The text has this: To further test whether the tumor growth inhibition effect of NC5 applied to other solid tumors, the HCC-Sk-Hep1cell line and PDAC-BXPC3 cell line xenograft models were used. Subcutaneous injection of 1.5×10^6 SK-Hep1 or BXPC3 cells in NSG mice, Six-ten days after tumor cell injection, the palpable tumor in NSG mice was confirmed.
(§3) To test the effects of the disclosed compounds on the xenograft mouse models, the HCC-Sk-Hep1 cell line xenograft model in NSG mice and 4T1-Luc orthotopic syngeneic breast tumor model in Balb/c mice was used. After confirming the palpable tumor in NSG or Balb/c mice. […] Compound III is referred to as “NC5-140-1” and Compound I is referred to as “NC5-140-2” in FIGS. 11A-11C.

Series [4] deals with SKHep1 cell line. The series is described as follows: CCK-8 cell viability, SKHep1. To be noted: 1 uM, 5 uM, 10 uM; 48 hours. It counts as cell-based. The protocol:
as §2

Series [5] relates to MDA-MB-231 cells. The series is described as follows: XTT cell viability, MDA-MB-231. To be noted: 24 and 48 hours. Format: cell-based. On the procedure:
(§4) FIGS. 8A-8C show results using MDA-MB-231 cells (FIG. 8A) or BXPC3 cells (FIG. 8B), wherein the cells were treated with 5 μM of NC5, Compound III (referred to as “NC5-140-1” in FIGS. 8A-8C), and Compound I (referred to as “NC5-140-2” in FIGS. 8A-8C) for 24-48 hours, wherein the XTT assay was used to determine cell viability. The symbol indicates the significance of NC5 vs. Compounds I and/or III; *p<0.05. Data represent mean±SEM.
(§5) Compound embodiments, compound III and compound I, were also made and evaluated. TNBC cells and PDAC cells were treated with a serial dose of original NC5 and modified NC5 derivatives for 24 and 48 hours. The cell viability will be measured by XTT assay. […] Compound III is referred to as “NC5-140-1” and Compound I is referred to as “NC5-140-2” in FIGS. 8A-8C.
Background: Tetrazolium assays rely on reduction of a dye to a coloured formazan, in cell work by metabolically active cells.

For series [6], the system named is Sk-Hep1 cells. Description: Growth inhibition of Sk-Hep1 cells (cell culture images). It counts as cell-based. The conditions noted are these: 5 μM, 24 hours.
Series [7] concerns HepG2 cell line. Description: CCK-8 cell viability, HepG2. It counts as cell-based. The conditions noted are these: 1 uM, 5 uM, 10 uM; 48 hours. On the procedure: as §2
Series [8] relates to MDA468 cell line. The series is described as follows: CCK-8 cell viability, MDA468. Format: cell-based. To be noted: 1 uM, 5 uM, 10 uM; 48 hours. On the procedure:
as §2

Series [9] relates to pCrkL (T207) in Sk-Hep1 cells. The series is described as follows: Flow cytometry of H2O2-induced pCrkL, Sk-Hep1. The conditions noted are these: 50 uM H2O2 1 hour, then 10 uM compound 24 hours. It counts as cell-based. On the procedure:
In this example, Sk-Hep1 cells were pretreated with 50 uM H2O2 for 1 hour to induce activation of pCrkL and were then incubated with 10 uM NC5 or Compound III for 24 hours. pCrkL (T207) expression was determined by flow cytometry.

Series [10] concerns PBNK cells killing activity towards MDA-MB-231. Description: Cr51 release assay, PBNK killing of MDA-MB-231. The conditions noted are these: 1 uM overnight. It counts as cell-based. On the procedure:
as §1

The subject of series [11] is 4T1 breast tumor. Description: 4T1-Luc orthotopic syngeneic breast tumor model. Format: in vivo, Balb/c mice. The conditions noted are these: 5.0 μg/g oral gavage.
Excerpt: Syngeneic orthotopic 4T1 breast tumor-bearing mouse model was established by inoculating 5×10^4 4T1-Luc cells mixed with Matrigel were into the left inguinal fat pad of Balb/c mice from Jackson Laboratories. This orthotopic syngeneic breast tumor model is a tool for preclinical testing of anti-cancer drugs or immunotherapy that require an intact immune system to elicit activity.
as §3

In series [12] the test system is BXPC3 cells. The series is described as follows: XTT cell viability, BXPC3. Format: cell-based. The conditions noted are these: 24 and 48 hours. On the procedure: as §4, §5
In series [13] the test system is AML cell line (MoLM-13). Description: CCK-8 cell viability, MoLM-13. It counts as cell-based, human. The conditions noted are these: 1 uM, 5 uM, 10 uM; 48 hours. On the procedure:
In this example, activities of NC5, Compound III, and the known chemotherapeutic, Cytarabine, were evaluated in the AML cell line (MoLM-13). MoLM-13 cells were collected and seeded at 5,000 cells/well in 96-well plates. The cells were incubated for 24 hours before the addition of either DMSO control or drug at various concentrations. After an additional 48 hours of incubation, 3 μL of CCK-8 was added to every well and incubated at 37° C. for 3 hours. Absorbance was measured at 460 nm in a plate reader. […] The related absorbance was normalized and plotted as line graphs. p-values were determined through two tails student t-tests (*=p<0.5, **=p<0.01, ***=p<0.001).

A short description of series [14]: Thermodynamic solubility. Format: physicochemical. To be noted: thermodynamic from solid. On the procedure:
In this example, solubility measurement assays were performed using a phosphate buffer (also referred to as “PB”) system and a water system to evaluate thermodynamic solubility. The PB system was at a pH of 7.4 to mimic in vivo environments. For the PB system, the values were determined to be NC5: Thermodynamic Solubility pH=7.4<0.42 μg/mL; Compound III: Thermodynamic Solubility pH=7.4<0.48 μg/mL; and Compound I: Thermodynamic Solubility pH=7.4<0.48 μg/mL. Results for the water assay were as follows: NC5: Thermodynamic Solubility Water<0.42 μg/mL; Compound III: Thermodynamic Solubility Water<0.48 μg/mL; and Compound I: Thermodynamic Solubility Water<0.48 μg/mL.

As a reminder, the solubility (thermodynamic) is solubility found after equilibrating the solid with the medium. Regarding `CC(C)=CCc1c2c(c3occ(-c4ccc5c(c4)OS(=O)(=O)O5)c(=O)c3c1O)C=CC(C)(C)O2` [Compound III], the “PBNK cells killing activity (Cr51 release)” value in series [1] and in series [10] was “increased PBNK cells killing activity” throughout. In addition, the “cell viability (CCK-8)” value in series [2] was “decreased cell viability significantly”; in series [4], “decreased cell viability significantly”; in series [7], “decreased cell viability significantly”; in series [8], “decreased cell viability significantly”; in series [13], “decrease cell viability significantly”. The figures for the tumor growth entry in series [3] and in series [11] were “inhibit tumor growth” and “steady growth inhibition”, respectively. The values for the median survival in series [3] (vehicle 26 days) and in [11] (vehicle 25 days) were 34.5 days and 39.5 days, respectively. The “toxic effect compared with NC5 (XTT viability)” value is listed as “comparable toxic effect as NC5” in series [5] and “better toxic effect than NC5” in series [12]. The “toxic effect compared with NC5 (growth inhibition)” value in [6] is given as “better toxic effect than NC5”. In addition, in series [9], the “H2O2 induced pCrkL protein levels” value is listed as “inhibited H2O2 induced pCrkL protein levels”. In addition, the thermodynamic solubility in series [14] (aqueous buffer, phosphate buffer (PB) system, pH 7.4, read-out: Thermodynamic Solubility pH=7.4) was < 0.48 µg/mL; in [14] (water system, read-out: Thermodynamic Solubility Water), < 0.48 µg/mL.
